What all share (experiment): 3H-2-deoxyglucose uptake inhibition in L929 cells
Format in all cases: cell-based

Assay [1] has as its target T1, GLUT1 (Mus musculus, UniProt P17809).
T1 sequence (P17809 1-492): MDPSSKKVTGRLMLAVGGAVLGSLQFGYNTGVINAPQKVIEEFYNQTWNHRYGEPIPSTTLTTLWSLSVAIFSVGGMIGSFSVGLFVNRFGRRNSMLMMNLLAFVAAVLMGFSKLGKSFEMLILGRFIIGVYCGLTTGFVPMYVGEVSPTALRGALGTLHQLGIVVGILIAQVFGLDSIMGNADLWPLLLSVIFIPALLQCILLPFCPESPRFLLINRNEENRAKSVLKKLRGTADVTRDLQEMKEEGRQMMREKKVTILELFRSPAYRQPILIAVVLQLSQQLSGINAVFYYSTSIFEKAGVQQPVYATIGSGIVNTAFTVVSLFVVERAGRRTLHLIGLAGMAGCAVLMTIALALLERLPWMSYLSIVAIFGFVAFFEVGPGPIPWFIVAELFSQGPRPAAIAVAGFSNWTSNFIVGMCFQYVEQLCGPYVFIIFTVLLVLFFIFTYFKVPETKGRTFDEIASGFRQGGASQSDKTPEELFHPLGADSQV

Assay [2] addresses T1, GLUT1. This is another data set of the same source.
The target in assay [3] is T1, GLUT1. This is another data set of the same source.

pIC50: −log10 of the molar value. Like-named read-outs stand apart in the source and are kept apart here.

`Cc1c(NC(=O)c2cc(C(N)=O)nc3cc(F)ccc23)c(C(F)(F)F)nn1Cc1ccc(C#N)cc1` [BAY-876]: the pIC50 in assay [1] is 7.70. `O=C(Oc1cccc(F)c1OC(=O)c1cccc(O)c1)c1cccc(O)c1` [WZB-117] showed a negative-log IC50 (pIC50) in assay [2] of 5.07. For `O=c1c(O)c(-c2ccc(O)c(O)c2)oc2cc(O)cc(O)c12` [quercetin, 3,3′,4′5,7-pentahydroxyflavone], the negative logarithm of the IC50 (pIC50) in assay [3] was 5.07.

What is called pIC50 is the IC50 on a negative log10 scale, so that one unit is a factor of ten.
